# Experimental data published in article PMC9610999, “Itraconazole-Induced Increases in Gilteritinib Exposure Are Mediated by CYP3A and OATP1B” (Molecules, 2022).
# Where two headings read alike, the source gives them in different places.
# Experiments:
# [1] = cited from earlier work
# [2] = target: T1, OATP1B1 (Homo sapiens, UniProt Q9Y6L6); test: Washout assay: recovery of OATP1B1 function (EβG uptake); type: cell-based; conditions: within a 1-h period after 15 min treatment with gilteritinib 15 µM; 0.2 μM EβG
# T1 construct: expressed in transfected cells; host or cells: HEK293
# T1 sequence (Q9Y6L6 1-691): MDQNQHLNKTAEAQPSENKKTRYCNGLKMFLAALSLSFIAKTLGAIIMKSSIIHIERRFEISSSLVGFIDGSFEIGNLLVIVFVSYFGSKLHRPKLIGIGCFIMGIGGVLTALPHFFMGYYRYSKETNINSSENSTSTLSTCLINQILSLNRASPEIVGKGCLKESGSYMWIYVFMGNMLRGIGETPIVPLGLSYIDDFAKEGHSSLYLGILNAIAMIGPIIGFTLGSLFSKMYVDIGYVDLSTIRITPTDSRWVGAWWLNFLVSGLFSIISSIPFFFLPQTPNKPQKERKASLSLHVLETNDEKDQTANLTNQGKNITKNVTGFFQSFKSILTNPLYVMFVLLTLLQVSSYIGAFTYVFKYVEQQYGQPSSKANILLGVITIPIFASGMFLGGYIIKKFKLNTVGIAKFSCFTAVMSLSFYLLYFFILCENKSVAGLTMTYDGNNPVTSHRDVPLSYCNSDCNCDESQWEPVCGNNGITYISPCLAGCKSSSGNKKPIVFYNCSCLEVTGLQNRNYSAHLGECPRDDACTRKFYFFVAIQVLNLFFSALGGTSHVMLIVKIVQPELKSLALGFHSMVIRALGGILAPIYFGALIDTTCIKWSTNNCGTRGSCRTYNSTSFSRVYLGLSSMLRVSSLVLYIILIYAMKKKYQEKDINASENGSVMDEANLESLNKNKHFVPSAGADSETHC
# Protocol: OATP1B1 overexpressing cells and vector control cells were plated in 12-well plates 24 h prior to experimentation. Cells were then washed with warm PBS and pre-incubated for 15 min with 0.5 mL DMSO or gilteritinib (15 μM) in DMEM at 37 °C. After pre-incubation, the supernatant was removed, and cells were washed with PBS. Compound-free medium was then added, and the cells were further incubated for periods of 15, 30, and 60 min. Next, the medium was removed, and cells were incubated with 0.5 mL of 0.2 μM EβG for 15 min. After that, the medium was removed and the cells were washed three times with ice-cold PBS, and 1 N NaOH was added to the wells to stop the rection. The next day 1 M HCL was added to each well and substrate concentrations were assessed using liquid scintillation counting. The resulting data were normalized to total protein as determined by a Pierce protein assay.
# [3] = target: T2, OATP1B2 (Mus musculus, UniProt Q9JJL3); test: Transport inhibition assay: 8-FcA uptake in OATP1B2 overexpressing HEK293 cells; type: cell-based; conditions: OATP1B2 overexpressing HEK293 cells vs vector control; fluorescent probe 8-FcA; read-out: IC50, inhibition of OATP1B2 function
# T2 construct: expressed in transfected cells; host or cells: HEK293
# T2 sequence (Q9JJL3 1-689): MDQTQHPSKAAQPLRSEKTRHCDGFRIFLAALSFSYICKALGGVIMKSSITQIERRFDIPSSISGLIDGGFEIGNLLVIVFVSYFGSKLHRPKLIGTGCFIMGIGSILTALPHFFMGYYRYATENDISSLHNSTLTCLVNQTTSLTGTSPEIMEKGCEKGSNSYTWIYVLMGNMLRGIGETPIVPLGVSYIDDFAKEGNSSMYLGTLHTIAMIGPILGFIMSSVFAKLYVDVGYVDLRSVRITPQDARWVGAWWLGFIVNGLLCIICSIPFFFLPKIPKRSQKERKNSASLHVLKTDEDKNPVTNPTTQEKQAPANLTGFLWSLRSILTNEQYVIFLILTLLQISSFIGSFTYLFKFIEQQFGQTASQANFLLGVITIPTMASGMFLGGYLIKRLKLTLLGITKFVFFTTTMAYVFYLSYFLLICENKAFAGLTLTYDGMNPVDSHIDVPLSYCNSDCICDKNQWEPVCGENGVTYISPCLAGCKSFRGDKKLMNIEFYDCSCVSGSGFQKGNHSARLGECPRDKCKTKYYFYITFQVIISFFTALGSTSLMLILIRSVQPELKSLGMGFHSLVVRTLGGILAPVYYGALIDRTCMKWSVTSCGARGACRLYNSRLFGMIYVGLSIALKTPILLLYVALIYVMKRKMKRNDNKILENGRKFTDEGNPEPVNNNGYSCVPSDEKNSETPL
# Protocol: Transport inhibition assays using 8-(2-[fluoresceinyl]-aminoethylthio)-adenosine-3′,5′-cyclic-monophosphate (8-FcA) were completed as previously described. OAT1B2 overexpressing cells and vector control cells were grown to confluency in a 96-well plate. Cells were washed, then incubated for 15 min with 100 μL phenol red-free DMEM containing gilteritinib or vehicle (DMSO). The media was removed, then cells were incubated with 45 μL media containing 25 μM 8-FcA for 30 min. The media was removed and cells were washed three times with ice cold PBS. Fluorescence was measured on a plate reader at excitation and emission wavelengths of 485 and 535 nm, respectively. Cells were lysed with 0.2% nitric acid at 4 °C overnight and a Pierce protein assay was used to normalize the data to total protein.
# [4] = target: T1, OATP1B1; test: Competitive counterflow assay with ACE in OATP1B1 overexpressing HEK293 cells; type: cell-based; conditions: gilteritinib 0.1–20 μM, 5 μM ACE, normalized to ACE alone
# Protocol: OATP1B1 overexpressing cells or vector control were seeded in 96-well plates in 200 μL DMEM and incubated for 24 h. The medium was aspirated off and the cells were washed three times with PBS at room temperature. The cells were then treated with 100 μL of 5 μM ACE and incubated at 37 °C for 15 min in uptake buffer. The supernatant was aspirated off and 100 μL of 5 μM ACE alone or in combination with DMSO or gilteritinib (0.1–20 μM) in uptake buffer were added to the cells. The plates were further incubated for 20 min at 37 °C. The supernatant was removed, and the cells were washed three times with 200 μL of ice-cold PBS. Lastly, 200 μL of 0.1 N NaOH was added to cells and incubated for 20 min at room temperature. Fluorescence was measured on a plate reader at excitation and emission wavelengths of 460 and 510 nm, respectively. The intracellular concentrations of ACE were calculated by comparison of fluorescence values observed with control samples incubated with ACE alone, which were set to 100%.
# [5] = design: method as in PMID 32546970; conditions: rats; cited from earlier work
# [6] = human, in vivo; cited from earlier work
compound,measurement,setting,value
CCc1nc(C(N)=O)c(Nc2ccc(N3CCC(N4CCN(C)CC4)CC3)c(OC)c2)nc1NC1CCOCC1 [Gilteritinib],Maximum tolerated dose,[1]; ref 4,300 mg
same,Maximum tolerated dose,[1]; ref 29,200 mg
same,OATP1B1 transport recovered after washout,[2],75%
same,IC50,[3],1830 nM
same,Effect on fluorescent signal of ACE in cells (competitive counterflow; transported substrate),[4],decreased the fluorescent signal in cells in a concentration-dependent manner
same,Increase in gilteritinib exposure by itraconazole,[5],1.4 fold
same,Increase in gilteritinib exposure when co-administered with itraconazole,[6],2.2 fold
